Test results: patent US7514469B2, “Formulation of a mixture of Free-B-ring flavonoids and flavans as a therapeutic agent” (Unigen Pharmaceuticals, Inc., priority 2002, dated 2009)
Where two headings read alike, the source gives them in different places. Blank lines part the entries; values can stand above or below the compound they belong to.

Legend:
Ovine COX-1 [1] = molecular target: T1, Ovine COX-1 (Ovis aries, UniProt P05979); assay: COX-1 peroxidase assay (Example 2 method); type: biochemical; settings: read-out: Inhibition of COX-1
T1 sequence (P05979 25-600): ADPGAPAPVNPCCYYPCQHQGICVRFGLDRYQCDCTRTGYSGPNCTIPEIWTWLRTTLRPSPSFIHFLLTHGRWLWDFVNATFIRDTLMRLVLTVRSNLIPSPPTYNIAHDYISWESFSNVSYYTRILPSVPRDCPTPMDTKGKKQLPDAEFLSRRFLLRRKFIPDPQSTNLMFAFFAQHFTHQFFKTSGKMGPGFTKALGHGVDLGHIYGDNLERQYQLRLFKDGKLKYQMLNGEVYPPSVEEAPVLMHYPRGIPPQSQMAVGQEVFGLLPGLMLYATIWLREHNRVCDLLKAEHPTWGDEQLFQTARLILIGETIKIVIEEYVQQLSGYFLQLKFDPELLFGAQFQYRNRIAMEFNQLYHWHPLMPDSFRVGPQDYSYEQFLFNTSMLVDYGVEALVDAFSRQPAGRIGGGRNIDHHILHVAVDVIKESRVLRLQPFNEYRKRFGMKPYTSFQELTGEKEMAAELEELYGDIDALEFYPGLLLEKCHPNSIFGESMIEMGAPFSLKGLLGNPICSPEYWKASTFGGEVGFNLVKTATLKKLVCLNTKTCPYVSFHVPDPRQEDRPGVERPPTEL
Source text: (§1) Peroxidase Assay. The assay to detect inhibitors of COX-2 was modified for a high throughput platform (Raz). […] Luminescence was then read using a Wallac Victor 2 plate reader.
Comparison of the relative inhibition of the COX-1 and COX-2 isoforms requires the generation of IC50 values for each of these enzymes. […] Examination of the HTP fractions and purified compounds from these fractions is necessary to determine the true specificity of inhibition for these extracts and compounds.

colorectal cancer = settings: in vivo; cited from earlier work
recombinant ovine COX-2 [2] = molecular target: T2, recombinant ovine COX-2 (Ovis aries, UniProt P79208); assay: COX-2 peroxidase assay, high throughput (Example 2); type: biochemical; settings: 20 μg/mL
T2 construct: purchased Cayman
T2 sequence (P79208 17-603): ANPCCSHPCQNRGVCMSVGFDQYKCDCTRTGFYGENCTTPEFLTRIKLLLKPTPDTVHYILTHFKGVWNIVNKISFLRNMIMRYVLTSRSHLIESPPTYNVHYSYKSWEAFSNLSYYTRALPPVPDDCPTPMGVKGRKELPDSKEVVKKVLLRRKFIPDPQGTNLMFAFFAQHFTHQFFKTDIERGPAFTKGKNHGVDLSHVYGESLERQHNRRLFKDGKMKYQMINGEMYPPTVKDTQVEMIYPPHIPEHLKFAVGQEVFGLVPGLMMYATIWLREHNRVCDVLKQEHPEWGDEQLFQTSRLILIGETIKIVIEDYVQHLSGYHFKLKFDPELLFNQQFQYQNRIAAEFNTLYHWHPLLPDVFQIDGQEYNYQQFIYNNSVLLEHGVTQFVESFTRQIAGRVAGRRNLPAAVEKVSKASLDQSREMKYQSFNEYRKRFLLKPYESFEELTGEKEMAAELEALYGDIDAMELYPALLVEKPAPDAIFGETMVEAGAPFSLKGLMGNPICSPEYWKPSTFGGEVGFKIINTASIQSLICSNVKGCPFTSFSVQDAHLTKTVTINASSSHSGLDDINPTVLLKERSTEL
Source text: as §1, with “reader. […] Data is presented as the percent of peroxidase activity relative to the recombinant ovine COX-2 enzyme and substrate alone.” for “reader.”

Ovine COX-1 [3] = molecular target: T1, Ovine COX-1; assay: COX-1 peroxidase activity IC50 assay with TMPD (Example 6); type: biochemical
Experimental: (§2) A cleavable, peroxide chromophore was included in the assay to visualize the peroxidase activity of each enzyme in the presence of arachidonic acid as a cofactor. Typically, the assays were performed in a 96-well format. Each inhibitor, taken from a 10 mg/mL stock in 100% DMSO, was tested in triplicate at room temperature using the following range of concentrations: 0, 0.1, 1, 5, 10, 20, 50, 100, and 500 μg/mL. […] The components were mixed for 10 seconds on a rotating platform, after which 20 μL of 2 mM N,N,N′N′-Tetramethyl-p-phenylenediamine dihydrochloride (TMPD) and 20 μL of 1.1 mM AA was added to initiate the reaction. The plate was shaken for 10 seconds and then incubated for 5 minutes before reading the absorbance at 570 nm. The inhibitor concentration vs. percentage inhibition was plotted and the IC50 determined by taking the half-maximal point along the isotherm and intersecting the concentration on the x-axis. The IC50 was then normalized to the number of enzyme units in the assay.

recombinant ovine COX-2 [4] = molecular target: T2, recombinant ovine COX-2; assay: COX-2 peroxidase activity IC50 assay with TMPD (Example 6); type: biochemical
Experimental: as §2

[5] = test system: LTB4 synthesis (5-LO pathway) in HT-29 cells; assay: LTB4 ELISA in HT-29 cells; type: cell-based; settings: 3 μg/mL, 48 hrs; Univestin ratio 80:20
Experimental: A competitive ELISA for LTB4 (LTB4; Neogen, Inc., Cat #4061 10) was used to assess the effect of Univestin™ on newly synthesized levels of LTB4 present in each cell line as a measure of Univestin™'s inhibitory effect on the 5-LO pathway. The assay was performed in duplicate by adding 160,000 to 180,000 cells per well in 6-well plates. […] Each treated cell line was then harvested by centrifugation and disrupted by gentle dounce homogenization lysis in physiological buffers.

potato 5-lipoxygenase = assay: Lipoxygenase Inhibitor Screening Assay with potato 5-LO; type: biochemical
Source text: As noted above, one of the most important pathways involved in the inflammatory response is produced by non-heme, iron-containing lipoxygenases (5-LO, 12-LO, and 15-LO), which catalyze the addition of molecular oxygen onto fatty acids such as AA (AA) to produce the hydroperoxides 5-, 12- and 15-HPETE, which are then converted to leukotrienes. There were early indications that the flavan extract from A. catechu may provide some degree of 5-LO inhibition, thereby preventing the formation of 5-HPETE. […] The 15-LO from soybeans normally used in the kit was replaced with potato 5-LO, after a buffer change from phosphate to a tris-based buffer using microfiltration was performed. This assay detects the formation of hydroperoxides through an oxygen sensing chromagen.

[6] = Clinical study, weight and BMI; type: in vivo, human; settings: 200 mg/day
Experimental: Additional measurements taken during the clinical trial were height and weight. All subjects in all groups (see Example 20) were measured for height and weight at 30 and 90 days of treatment. The subjects were given no recommendations on diet or exercise in order not to bias the results toward reduction of BMI and weight loss. Table 14 illustrates the changes in weight and BMI that occurred after treatment for 30 and 90 days.

[7] = test system: subjects with rheumatoid arthritis or osteoarthritis of the knee and/or hip; assay: Clinical study, WOMAC Osteo-Arthritis Index; type: in vivo, human; settings: 200 mg/day; vs baseline; completers only
Source text: This clinical study was a single-center, randomized, double-blind, placebo-controlled study. Sixty subjects (n=60) with rheumatoid arthritis or osteoarthritis of the knee and/or hip were randomly placed into one of the following four groups:
Subjects were sex-matched and recruited from ages 40 to 75. […] Subjects taking NSAIDs engaged in a two-week washout period before beginning the study. Physical activity was not restricted, nor were the subjects given any advice as to diet. Subjects were free to withdraw from the trial at any time for any reason. The efficacy of the treatments was evaluated at 30, 60 and 90 days of oral administration by physicians, using the Western Ontario and McMaster Universities (WOMAC) Osteo-Arthritis Index (See Lingard et al. (2001) J. Bone & Joint Surg. 83:1856-1864; Soderman and Malchau (2000) Acta Orthop. Scand. 71(1):39-46). This protocol was reviewed and approved by an IRB board from University of Montreal.
The WOMAC was administered to subjects preferably in the doctor's office. They were asked to read and respond to a questionnaire on their own or via proxy in the waiting room of the doctor's office or were interviewed by project personnel over the telephone and the data were transcribed in the computer database. This offered a stable environment among patients and reduced the possibility of bias due to different home environments among patients. Between groups differences for all measurements were evaluated with One-Way Analysis of Variance and Tukey's Least Significant Difference for multiple comparisons. All questions were assigned a weight from 0 to 4 depending on the severity of pain, stiffness or impaired function. These values were then converted to percentages normalized to 100 and reported as WOMAC scores. Higher values are indicative of greater impairment. […] The lower the score, the less pain and stiffness and better function a patient has.

COX-1 = settings: cited from earlier work
mouse = settings: oral, 100 mg/kg; cited from earlier work

Structure (SMILES): COc1c(O)cc(O)c2c(=O)cc(-c3ccccc3)oc12 [Wogonin]
inhibition at 20 µg/mL (Ovine COX-1 [1]): 16%

Structure (SMILES): CC(=O)Oc1ccccc1C(=O)O [Aspirin]
Reduction of colorectal cancer mortality (colorectal cancer): 50%
Reduction of incidence of colorectal cancer (colorectal cancer): 40-50%

inhibition at 20 µg/mL (Ovine COX-1 [1]; 20 μg/mL): 75%
inhibition at 20 µg/mL (recombinant ovine COX-2 [2]): 59%
Structure (SMILES): COc1cc2oc(-c3ccccc3)cc(=O)c2c(O)c1O [5,6-Dihydroxy-7-methoxyflavone]

IC50 (Ovine COX-1 [3]): 24.1 µM
IC50 (recombinant ovine COX-2 [4]): 68.9 µM
Structure (SMILES): Oc1cc(O)c2c(c1)O[C@H](c1ccc(O)c(O)c1)[C@H](O)C2 [epicatechin]

Structure (SMILES): CC(C)Cc1ccc(C(C)C(=O)O)cc1 (centres unmarked) [Ibuprofen]
Reduction of newly synthesized LTB4 [5]: 20%

IC50 for 5-LO (potato 5-lipoxygenase): 1.38 μg/mL/unit of enzyme
IC50 for COX-1 (Ovine COX-1 [3]; normalized to enzyme units): 0.11 μg/mL/unit of enzyme
IC50 for COX-2 (recombinant ovine COX-2 [4]; normalized to enzyme units): 0.42 μg/mL/unit
Structure (SMILES): Oc1cc(O)c2c(c1)OC(c1ccc(O)c(O)c1)C(O)C2 (centres unmarked) [catechin]

Structure (SMILES): Cc1ccc(-c2cc(C(F)(F)F)nn2-c2ccc(S(N)(=O)=O)cc2)cc1 [Celecoxib]
Change in mean BMI, 30 days [6]: −.68 kg/m^2
Change in mean BMI, 90 days [6]: −1.07 kg/m^2
Change in mean weight, 30 days [6]: -2.00 kg
Change in mean weight, 90 days [6]: -3.17 kg
Mean absolute change in WOMAC score Function-30 days [7]: −0.37
Mean absolute change in WOMAC score Function-60 days [7]: −6.97
Mean absolute change in WOMAC score Function-90 days [7]: −2.78
Mean absolute change in WOMAC score Pain-30 days [7]: −4.23
Mean absolute change in WOMAC score Pain-60 days [7]: −22.31
Mean absolute change in WOMAC score Pain-90 days [7]: −16.67
Mean absolute change in WOMAC score Stiffness-30 days [7]: −8.65
Mean absolute change in WOMAC score Stiffness-60 days [7]: −9.62
Mean absolute change in WOMAC score Stiffness-90 days [7]: −13.54

Structure (SMILES): Oc1cc(O)c2c(c1)O[C@H](c1ccc(O)c(O)c1)[C@@H](O)C2 [(+)-Catechin]
IC50 (COX-1; isolated from natural source): 80 µM

inhibition at 20 µg/mL (Ovine COX-1 [1]; 20 μg/mL): 95%
inhibition at 20 µg/mL (recombinant ovine COX-2 [2]): 97%
Structure (SMILES): O=C(O)[C@H]1O[C@@H](Oc2cc3oc(-c4ccccc4)cc(=O)c3c(O)c2O)[C@H](O)[C@@H](O)[C@@H]1O [baicalin]

Structure (SMILES): Oc1ccc([C@H]2Oc3cc(O)cc(O)c3C[C@H]2O)cc1 [Epiafzelechin]
Anti-inflammatory activity, carrageenin-induced mouse paw edema (mouse): demonstrated anti-inflammatory activity
IC50 (COX-1; isolated from Celastrus orbiculatus): 15 µM

inhibition at 20 µg/mL (Ovine COX-1 [1]; 20 μg/mL): 74%
inhibition at 20 µg/mL (recombinant ovine COX-2 [2]): 63%
Structure (SMILES): O=c1cc(-c2ccccc2)oc2c(O)c(O)ccc12 [7,8-Dihydroxyflavone]

inhibition at 20 µg/mL (Ovine COX-1 [1]; 20 μg/mL): 107%
Structure (SMILES): O=c1cc(-c2ccccc2)oc2cc(O)c(O)c(O)c12 [baicalein]
